The values that follow come from patent publication US20240181022A1, “AMURINS LYSINS, AND LYSIN-ANTIMICROBIAL PEPTIDE (AMP) CONSTRUCTS ACTIVE AGAINST GRAM-NEGATIVE BACTERIA” (priority 2021, published 2024).

In assay [1] the test system is P. aeruginosa. In words: Checkerboard synergy assay (FICI) with antibiotics against P. aeruginosa. It is filed as cell-based, Pseudomonas aeruginosa. Particulars: for FICI of the antibiotic with GN370: P. aeruginosa ATCC 27853, checkerboard; for Antibiotic MIC (single agent): P. aeruginosa strain AR-769; for Antibiotic FIC / Antibiotic MIC (combo): P. aeruginosa strain AR-769, in combination with GN370; for Antibiotic MIC (combo): in µg/mL. The protocol: (§1) Any known method to assess MIC may be used.
(§2) Checkerboards are constructed by first preparing columns of e.g., a 96-well polypropylene microtiter plate, wherein each well has the same amount of antibiotic diluted 2-fold along the horizontal axis. […] Bacteria are added to the drug combinations at concentrations of 1×10^5 […] in CAA, for example, with or without human serum or pulmonary surfactant. […] Summation fractional inhibitory concentrations (ΣFICs) are calculated for each drug and the minimum ΣFIC value (ΣFICmin) is used to determine the effect of the Chp peptide/antibiotic combination.
The synergy of GN370 with meropenem was evaluated against 3 different strains of P. aeruginosa and three different strains of B. cenocepacia.
(§3) GN370 was further tested in combination with up to seven additional antibiotics (in addition to meropenem) against a variety of bacterial strains, including P. aeruginosa, A. baumannii, E. coli, E. cloacae, and K. pneumoniae. GN370 and the subject antibiotics were tested in a checkerboard assay format, and FICI values were determined, wherein ≤0.5 indicates synergy, >0.5-≤1 indicates additive; and >1 indicates indifferent.

The next assay concerns A. baumannii. In words: Checkerboard synergy assay (FICI) against A. baumannii. It is filed as cell-based, Acinetobacter baumannii. Particulars: A. baumannii ATCC BAA-747. On the procedure:
as §1, §2, §3

For a further assay, the system named is E. coli. In words: Checkerboard synergy assay (FICI) against E. coli. It is filed as cell-based, Escherichia coli. Conditions: E. coli ATCC 25922.
From the text: In some embodiments, the Chp peptides disclosed herein or active fragments thereof reduce the minimum inhibitory concentration (MIC) of an antibiotic in the presence and/or absence of human serum, pulmonary surfactant, and/or sputum, including human sputum and human sputum from a cystic fibrosis patient. Any known method to assess MIC may be used. In some embodiments, a checkerboard assay is used to determine the effect of a Chp peptide or active fragment thereof on antibiotic concentration. The checkerboard assay is based on a modification of the CLSI method for MIC determination by broth microdilution (See Clinical and Laboratory Standards Institute (CLSI), CLSI. 2015. Methods for Dilution Antimicrobial Susceptibility Tests for Bacteria That Grow Aerobically; Approved Standard-10th Edition. Clinical and Laboratory Standards Institute, Wayne, PA, which is herein incorporated by reference in its entirety and Ceri et al. 1999. J. Clin. Microbiol. 37: 1771-1776, which is also herein incorporated by reference in its entirety).
Checkerboards are constructed by first preparing columns of e.g., a 96-well polypropylene microtiter plate, wherein each well has the same amount of antibiotic diluted 2-fold along the horizontal axis. […] The Chp peptide or active fragment thereof and antibiotic dilutions are then combined, so that each column has a constant amount of antibiotic and doubling dilutions of Chp peptide, while each row has a constant amount of Chp peptide and doubling dilutions of antibiotic. Each well thus has a unique combination of Chp peptide and antibiotic. Bacteria are added to the drug combinations at concentrations of 1×10^5 GFU/ml in CAA, for example, with or without human serum or pulmonary surfactant. […] Summation fractional inhibitory concentrations (ΣFICs) are calculated for each drug and the minimum ΣFIC value (ΣFICmin) is used to determine the effect of the Chp peptide/antibiotic combination.
as §3

The subject of another assay is E. cloacae. In words: Checkerboard synergy assay (FICI) against E. cloacae. It is filed as cell-based, Enterobacter cloacae. Conditions: E. cloacae ATCC 13047. The protocol: as §1, §2, §3
A further assay deals with K. pneumoniae. In words: Checkerboard synergy assay (FICI) against K. pneumoniae. It is filed as cell-based, Klebsiella pneumoniae. Conditions: K. pneumoniae HM-44. The protocol: as §1, §2, §3
Assay [2] has as its system P. aeruginosa. In words: Serial passage resistance development study, P. aeruginosa. It is filed as cell-based, Pseudomonas aeruginosa. Particulars: for MIC: Pseudomonas aeruginosa.
The next assay concerns S. maltophilia. In words: Serial passage resistance development study, S. maltophilia. It is filed as cell-based, Stenotrophomonas maltophilia. Particulars: for MIC: Stenotrophomonas maltophilia.
Another assay has as its system A. xylosoxidans. In words: Serial passage resistance development study, A. xylosoxidans. It is filed as cell-based, Achromobacter xylosoxidans. Conditions: for change in MIC over serial passage: A. xylosoxidans; for MIC: Achromobacter xylosoxidans.
Assay [3] deals with A. baumannii (ATCC BAA-747). In words: microbe, parasite or virus in culture. It is filed as cell-based, Acinetobacter baumannii.
Another assay relates to E. coli (ATCC 25922). In words: microbe, parasite or virus in culture. It is filed as cell-based, Escherichia coli.
Assay [4] deals with K. pneumoniae (1_1_5 HM-44). In words: microbe, parasite or virus in culture. It is filed as cell-based, Klebsiella pneumoniae.
The subject of the next assay is E. cloacae (ATCC 13047). In words: microbe, parasite or virus in culture. It is filed as cell-based, Enterobacter cloacae.
The subject of assay [5] is P. aeruginosa.
For assay [6], the system named is P. aeruginosa AR-769. In words: Repeat dose study of AM1 in the rabbit pulmonary infection model. It is filed as in vivo.
Assay [7] concerns P. aeruginosa AR-769. In words: GN370 in the rabbit pneumonia model. It is filed as in vivo, New Zealand White rabbits. Conditions: amikacin-alone or GN370-alone.
The test system of assay [8] is P. aeruginosa. Conditions: 21 day serial passage, literature; cited from earlier work.
The next assay concerns M. avium. In words: MIC against M. avium. It is filed as cell-based, Mycobacterium avium. Conditions: M. avium (ATCC 700898); CAAT media.
Setting [9] is: 672 h, read-out: MIC after 28-day serial passage.
Where [10] appears, read: read-out: MIC at start of serial passage.
The mark [11] stands for this setting: rabbit, amikacin 16 mg/kg i.v. every 8 hours (n = 17).

Converted amounts (≈) assume the structure as drawn. “And” between values parts separate entries of the source, which are not always exact repeats. Equal values may be shown once. Read-outs that look alike come from different tables or passages of the source. Marks after values point to notes of the source that are not given here.

For the compound Colistin, the “FICI of the antibiotic with GN370” value with P. aeruginosa [1] worked out at 0.499; in the assay on A. baumannii, 0.375; in the assay with E. coli, 0.375; in the assay on E. cloacae it was 0.25; in the assay on K. pneumoniae, 0.187. Moreover, the Antibiotic MIC (single agent) in the assay on P. aeruginosa [1] came out at 0.063 µg/mL. Also, the “Antibiotic FIC” value with P. aeruginosa [1] worked out at 0.125. In addition, in the assay on P. aeruginosa [1], the “Antibiotic MIC (combo)” value worked out at 0.008.
In the case of `C[C@H]1COc2c(N3CCN(C)CC3)c(F)cc3c(=O)c(C(=O)O)cn1c23` [levofloxacin, reference compound], the MIC in the assay on P. aeruginosa [2] was determined as 4 µg/mL (≈ 11.1 µM); with S. maltophilia (setting [9]) it was 64 µg/mL (≈ 177 µM); with S. maltophilia (setting [10]), 0.25 µg/mL (≈ 0.692 µM); with A. xylosoxidans (672 h, read-out: MIC after 28-day serial passage, A. xylosoxidans) it was 32 µg/mL (≈ 88.6 µM); in the assay with A. xylosoxidans (672 h, read-out: MIC after 28-day serial passage, A. xylosoxidans, another instance) it was 128 µg/mL (≈ 354 µM); in the assay with A. xylosoxidans (read-out: MIC at start of serial passage, A. xylosoxidans), 0.25 µg/mL (≈ 0.692 µM). The MIC came to 2 µg/mL (≈ 5.53 µM) in the assay on A. xylosoxidans (read-out: MIC at start of serial passage, A. xylosoxidans, another instance); 0.125 µg/mL (≈ 0.346 µM) in [3] (Acinetobacter baumannii, ATCCBAA747); 0.0312 µg/mL (≈ 0.0865 µM) in the assay with E. coli (ATCC 25922) (Escherichia coli, ATCC25922); 0.0312 µg/mL (≈ 0.0865 µM) in assay [4] (Klebsiella pneumoniae); 0.0625 µg/mL (≈ 0.173 µM) against E. cloacae (ATCC 13047) (Enterobacter cloacae, ATCC13047); 1 µg/mL (≈ 2.77 µM) against P. aeruginosa [5] ([…], before serial passage). The “change in MIC over serial passage” value with S. maltophilia (S. maltophilia, day 28, triplicate) is “up to 256 fold”; in the assay on A. xylosoxidans (day 28) it was 128 fold; in the assay on A. xylosoxidans (day 28, another instance), 64 fold. Besides, the “change in MIC over 28-day serial passage” value in assay [3] (A. baumannii (ATCC BAA-747)) is reported as 128 fold; in the assay with E. coli (ATCC 25922) (E. coli (ATCC 25922)) it was 128 fold; in assay [4] (K. pneumoniae (1_1_5 HM-44)) it was “up to 512 fold”; with E. cloacae (ATCC 13047) (E. cloacae (ATCC 13047)) it was 256 fold.
As to `NCC[C@H](O)C(=O)N[C@@H]1C[C@H](N)[C@@H](O[C@H]2O[C@H](CN)[C@@H](O)[C@H](O)[C@H]2O)[C@H](O)[C@H]1O[C@H]1O[C@H](CO)[C@@H](O)[C@H](N)[C@H]1O` [amikacin, reference compound], in the assay with P. aeruginosa [1], the “FICI of the antibiotic with GN370” value is 0.375, the Antibiotic MIC (single agent) came to 0.5 µg/mL, the “Antibiotic FIC” value is given as 0.25 and the “Antibiotic MIC (combo)” value is recorded as 0.125. For the same compound, the “FICI of the antibiotic with GN370” value in the assay with A. baumannii turned out to be 0.625. Further, the “FICI of the antibiotic with GN370” value in the assay with E. coli worked out at 0.25. Also, the “FICI of the antibiotic with GN370” value in the assay with E. cloacae stood at 0.75. The “FICI of the antibiotic with GN370” value in the assay on K. pneumoniae was determined as 0.375. Besides, in the assay on P. aeruginosa AR-769 [6] (agent alone, intravenous, treatment from 6 hours post-infection), the “mean bacterial density in lungs compared to the vehicle control group” value is given as “moderate to no CFU/g reduction”. For the same compound, in the assay on P. aeruginosa AR-769 [6] (setting [11]), the “Log CFU change v. pre-treatment (at 6 hours)” value is recorded as 0.35* Log CFU, the “Mean Bacterial Density in Lung ± SD” value was 7.84 ± 1.06 Log CFU/lung and the Survival amounted to 85%. Besides, the “decrease of mean bacterial densities in lungs vs vehicle controls” value in the assay with P. aeruginosa AR-769 [7] was found to be 1.3 log10 CFU/g. This compound also registered an MIC against P. aeruginosa [5] (XDR P. aeruginosa strain AR-769) of 8 µg/mL (≈ 13.7 µM).
For the compound `O=C(O)c1cn(C2CC2)c2cc(N3CCNCC3)c(F)cc2c1=O` [ciprofloxacin, reference compound], the Antibiotic MIC (single agent) in the assay with P. aeruginosa [1] was found to be 8 µg/mL. The “Antibiotic FIC” value in the assay with P. aeruginosa [1] was 0.25; with P. aeruginosa [1] (listed as Ciprofloxacin) it was 0.125. Further, in the assay with P. aeruginosa [1], the “Antibiotic MIC (combo)” value is 2 and 1. The “FICI of the antibiotic with GN370” value in the assay with K. pneumoniae is recorded as 0.156. Further, the “change in MIC over 28-day serial passage” value in the assay on P. aeruginosa [2] (P. aeruginosa (PA453)) is “up to 512 fold”. For the same compound, the “change in MIC over serial passage” value in the assay on P. aeruginosa [2] (P. aeruginosa strain CFS 1292, Day 28) is recorded as 256 fold. The MIC with P. aeruginosa [2] came to 2 µg/mL (≈ 6.04 µM); in the assay on P. aeruginosa [2] (setting [9]) it was 256 µg/mL (≈ 773 µM); in the assay with P. aeruginosa [2] (setting [10]), 1 µg/mL (≈ 3.02 µM). Further, in the assay with P. aeruginosa [8], the “increase of MIC over serial passage (D'Lima et al.)” value is on record as “up to 32 fold”.
With `NC[C@H]1O[C@H](O[C@H]2[C@H](O)[C@@H](O[C@H]3O[C@H](CO)[C@@H](O)[C@H](N)[C@H]3O)[C@H](N)C[C@@H]2N)[C@H](N)C[C@@H]1O` [tobramycin, reference compound], the MIC against M. avium was found to be 0.125 Tg/mL; in the assay with P. aeruginosa [5] ([…], before serial passage), 0.002 µg/mL (≈ 0.00428 µM). In addition, the “FICI of the antibiotic with GN370” value with P. aeruginosa [1] was 0.5; in the assay on A. baumannii it was 0.5; in the assay on E. coli, 0.25; with E. cloacae, 0.5; in the assay with K. pneumoniae it was 0.375. The Antibiotic MIC (single agent) with P. aeruginosa [1] was found to be 0.125 µg/mL. In addition, in the assay with P. aeruginosa [1], the “Antibiotic FIC” value is given as 0.125. Besides, in the assay with P. aeruginosa [1], the “Antibiotic MIC (combo)” value was 0.016 and 0.015.
Gentamicin: the “FICI of the antibiotic with GN370” value in the assay with A. baumannii came to 0.563; in the assay with E. coli it was 0.312; in the assay on E. cloacae, 0.25; with K. pneumoniae, 0.375.
